Data taken from US20240390377A1, “COMPOSITION FOR THE PREVENTION OR TREATMENT OF NEURODEGENERATIVE OR MOTOR NEURON DISEASES COMPRISING HALOFUGINONE AS AN ACTIVE INGREDIENT” (CURAMYS CO., LTD., priority 2022, published 2024).

Tests used:
[1] = test system: C2C12 cells; experiment: Western blot analysis of C2C12 myoblasts (TGF-β1 stimulation, halofuginone treatment); type: cell-based, mouse; details: 24 hours of 5 ng/ml TGF-β1 stimulation (FIG. 2b)
Protocol: (§1) Specifically, C2C12 cells (CRL-1772) were purchased from the American Type Culture Collection (ATCC) and maintained in DMEM medium (Welgene) containing 10% (v/v) fetal bovine serum (FBS; Gibco) and 1% penicillin-streptomycin (P/S; Gibco) at 37° C. under 5% CO2 conditions. The C2C12 cells were seeded in 6-well plates at a density of 3×10^5 cells per well and allowed to adhere for 24 hours. Subsequently, the medium was replaced with serum-free medium after 24 hours, followed by stimulation with 5 ng/ml rhTGF-β1 (recombinant human TGF-β1; R&D Systems). After stimulation, the cells were treated with various concentrations (0 [control], or 1, 2.5, 5 [low dose], 10 [high dose], 20, 50, 100 ng/ml) of halofuginone (Sigma) in serum-free medium for 24 hours.
Specifically, the lumbar spinal cord or knee joint of the mouse of Example 6 was separated and immediately frozen at −80° C. Each lumbar spinal cord or knee joint was then homogenized and chemically treated to obtain cells. The chemically treated cells, the C2C12 cells of Example 1 or the fibroblasts of Example 5 were dissolved in a RIPA buffer (Thermo, MA, USA) with a protease inhibitor and a phosphatase inhibitor (Roche, IN, USA) and incubated on ice for 30 minutes. After centrifugation of the lysate at 13,000 rpm at 4° C. for 20 min, insoluble substances were removed. Protein concentrations were measured by BCA analysis (Pierce Biotechnology). Equal volumes of cell lysate were loaded onto SDS-PAGE gels for electrophoresis, and transferred onto nitrocellulose membranes (Amersham Protran 0.2 um NC, Amersham Pharmacia Biotech, Piscataway, NJ, USA). The membranes were then blocked with 5% (w/v) skimmilk in 1×TBST for 1 h at room temperature. After blocking, anti-RB-actin antibody (1:5000; Santa Cruz, cat #sc47778), anti-Smad2 antibody (1:1000; Cell Signaling, cat #5339), anti-p-Smad2 antibody (1:1000; Cell Signaling, cat #3108), anti-TGF-β1 antibody (1:1000; Santa Cruz, cat #sc130348), anti-α-SMA antibody (1:10000; abcam cat #ab7817), anti-MyoD antibody (1:1000; cat #sc377460), anti-collagen|antibody (1:1000; abcam cat #ab21286), anti-cleaved caspase-3 antibody (1:1000; Cell Signaling, cat #9661), anti-bax antibody (1:500; Santa Cruz, cat #sc493), anti-bcl2 antibody (1:1000; Novus Biologics, cat #NB100-56098), anti-ChAT antibody (1:1000; Millipore, cat #AB144) were treated and incubated overnight at 4° C. Subsequently, membranes were washed several times with 1×TBST and incubated with horseradish peroxidase-conjugated secondary antibodies (anti-mouse, rabbit or goat, 1:5000; GE Healthcare) in blocking buffer for 1 h at room temperature (RT). The membranes were then washed, briefly incubated with the SuperSignal West Pico Plus Chemical Substructure (Pierce Biotechnology) according to the manufacturer's procedure, and quantified with an image analyzer (Amersham Pharmacia Biotech, Piscataway, NJ, USA). β-actin was used as an internal control group. The concentration measurement of protein intensity was quantified using Image J (National Institutes of Health).
(§2) Specifically, after treating C2C12 cells with TGF-β1 for 24 hours as in Example 1, real-time qRT-PCR was performed in the same manner as in Example 11 to confirm TGF-β1, 2 and 3, α-SMA and MyoD mRNA expression (FIG. 2a), and Western blot analysis was performed in the same manner as in Example 12 to confirm autocrine expression of TGF-β1 and MyoD protein and α-SMA (FIG. 2b).
Specifically, C2C12 cells were treated with halofuginone after TGF-β1 stimulation or no stimulation in the same manner as described in Example 2, and cell viability analysis was performed through CCK-8 analysis (FIGS. 3a and 3b), and Western blot analysis was performed in the same manner as described in Example 12 to confirm autocrine expression of p-Smad2, Smad2, TGF-β1, MyoD, collagen I protein and α-SMA (FIG. 3c). […]

[2] = test system: C2C12 cells; experiment: Real-time qRT-PCR analysis of C2C12 myoblasts (TGF-β1 stimulation, halofuginone treatment); type: cell-based, mouse; details: 24 hours of 5 ng/ml TGF-β1 stimulation, vs control group (FIG. 2a)
Protocol: as §1
Specifically, total RNA was isolated from C2C12 cells in Example 1, fibroblasts in Example 5, and the lumbar spinal cord of mice in Example 6 using the FavorPrep™ Tri-RNA Reagent (Favorgen). The lumbar spinal cord was isolated from the mouse in Example 6 and stored frozen at −80° C. until the experiment. The concentration of total RNA was measured at 260 nm absorbance using a spectrophotometer (NanoDrop Spectrophotometer ND-2000, Thermo Scientific). cDNA was synthesized from 1 μg of total RNA using the ReverTra Ace-α™ (Toyobo) according to the manufacturers protocol. Quantitative RT-PCR was performed using the SYBR Green ExcelTaq™ 2× Fast Q-PCR Master Mix (TQ1200, Smobio) on a thermocycler (CFX Connect Real-Time PCR Detection System, BIO-RAD) with the primers listed in Table 3 below. Fluorescence data were analyzed with Bio-Rad CFX Manager 3.1 software, and control versus relative mRNA expression was calculated by the 2AT) method. Experiments were performed four times on all samples. All primers were designed using Primer3 online software, and GAPDH was used as a control group.
as §2
Specifically, as in Example 1, C2C12 cells were stimulated with TGF-β1 for 24 hours, and then halofuginone was treated for 24 hours, and real-time qRT-PCR was performed in the same manner as in Example 11 to confirm TGF-β1, α-SMA, MyoD, and collagen I (Col-I) mRNA expression (FIG. 4a). In addition, Western blot analysis was performed in the same manner as in Example 12 to confirm TGF-β1, α-SMA, MyoD, and collagen I protein expression (FIG. 4b). In addition, immunocytochemical analysis was performed in the same manner as in Example 3 to confirm α-SMA and MyoD expression (FIG. 4c).

In the case of “TGF-β1: recombinant human TGF-β1 (R&D Systems) used to stimulate C2C12 myoblasts”, the TGF-β1 protein expression [1] is reported as “significantly increased”, the “protein expression of MyoD” value [1] is reported as “significantly decreased” and the α-SMA protein expression [1] is reported as “significantly increased”. For the same substance, the “mRNA expression of α-SMA” value [2] was “significantly increased”, the “mRNA level of MyoD” value [2] was “significantly decreased” and the “mRNA level of TGF-β1” value [2] was “significantly increased”. The “mRNA level of TGF-β2” value [2] was “significantly increased” and the “mRNA level of TGF-β3” value [2] was “significantly increased”.
